Structures are written as SMILES. Where only a bound is given, the exact number is not on record here.

Experiment [1] has as its target T1, Tie2 (Homo sapiens, UniProt Q02763). Put plainly: Tie2 ELISA assay (assay 1): cellular Tie2 autophosphorylation. More on the design: expressed in transfected cells; host or cells: CHO (DHFR-deficient), stably transfected. Format: cell-based. To be noted: CHO cells stably transfected with Tie2, stimulated by angiopoietin-2; Tie2 autophosphorylation by sandwich-ELISA; read-out: Tie 2 activity (assay 1). How it is done: Assay 1: Tie2 ELISA Assay
Cellular activity of compounds of the present invention as inhibitors of Tie2 kinase activity was measured employing a Tie2 ELISA assay as described in the following paragraphs. Herein CHO cell-cultures, which are stably transfected by known techniques with Tie2 using DHFR deficiency as selection marker, are stimulated by angiopoietin-2. The specific autophosphorylation of Tie2 receptors is quantified with a sandwich-ELISA using anti-Tie2 antibodies for catch and anti-phosphotyrosine antibodies coupled to HRP for detection. […]
Target sequence in this assay (Q02763 23-1124): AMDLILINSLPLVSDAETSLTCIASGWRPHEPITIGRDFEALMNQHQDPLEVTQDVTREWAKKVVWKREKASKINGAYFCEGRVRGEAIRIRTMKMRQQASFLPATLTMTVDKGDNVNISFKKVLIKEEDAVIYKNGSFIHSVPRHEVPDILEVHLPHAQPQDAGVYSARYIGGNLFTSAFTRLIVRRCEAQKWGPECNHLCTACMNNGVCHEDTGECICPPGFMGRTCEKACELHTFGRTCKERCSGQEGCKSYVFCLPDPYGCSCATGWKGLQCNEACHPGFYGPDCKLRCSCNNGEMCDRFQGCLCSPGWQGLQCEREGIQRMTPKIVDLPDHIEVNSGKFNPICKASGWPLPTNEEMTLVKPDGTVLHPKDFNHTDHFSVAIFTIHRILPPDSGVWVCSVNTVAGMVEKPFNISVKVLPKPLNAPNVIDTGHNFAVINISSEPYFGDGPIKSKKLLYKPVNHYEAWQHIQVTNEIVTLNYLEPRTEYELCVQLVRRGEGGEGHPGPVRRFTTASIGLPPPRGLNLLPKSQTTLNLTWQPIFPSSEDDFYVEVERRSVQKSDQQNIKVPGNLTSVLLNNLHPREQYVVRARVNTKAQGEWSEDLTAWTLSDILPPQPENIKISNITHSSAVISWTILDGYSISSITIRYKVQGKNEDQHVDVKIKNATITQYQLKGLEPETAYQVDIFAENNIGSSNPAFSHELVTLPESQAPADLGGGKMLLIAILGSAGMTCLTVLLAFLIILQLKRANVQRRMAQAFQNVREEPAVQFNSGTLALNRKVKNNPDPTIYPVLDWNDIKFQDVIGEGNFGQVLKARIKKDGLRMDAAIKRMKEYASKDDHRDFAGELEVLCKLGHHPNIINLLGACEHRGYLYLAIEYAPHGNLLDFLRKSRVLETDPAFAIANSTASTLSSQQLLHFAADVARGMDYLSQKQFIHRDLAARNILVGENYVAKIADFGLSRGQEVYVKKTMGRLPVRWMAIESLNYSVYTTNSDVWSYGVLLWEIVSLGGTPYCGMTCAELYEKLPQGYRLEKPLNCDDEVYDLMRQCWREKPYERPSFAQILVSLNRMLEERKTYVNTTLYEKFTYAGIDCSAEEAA

A further experiment concerns the target T2, human c-kit (Homo sapiens, UniProt P10721).
T2 construct: GST-tagged recombinant kinase domain of the human c-kit; GST; host or cells: SF-9 insect cells
Put plainly: cKIT-Kinase HTRF-Assay (assay 4). The settings on record: for IC50: GST-tagged kinase domain of human c-kit, 10 μM ATP; for Selectivity vs. cKit: IC50 assay 4/IC50 assay 2. The experiment is classed as biochemical. As for the experimental part: Assay 4: cKIT-Kinase HTRF-Assay
c-Kit-inhibitory activity of compounds of the present invention was quantified employing the c-kit HTRF assay as described in the following paragraphs. GST-tagged recombinant kinase domain of the human c-kit expressed in SF-9 cells was used as kinase. As substrate for the kinase reaction biotinylated poly-(Glu,Tyr) (Cis biointernational, France) was used.
c-Kit was incubated for 30 min at 22° C. in the presence of different concentrations of test compounds in 5 μl assay buffer [50 mM Hepes/NaOH pH 7.0, 1 mM MgCl2, 5 mM MnCl2, 1.0 mM dithiothreitol, 0.1 mM sodium ortho-vanadate, 10 μM adenosine-tri-phosphate (ATP), 1.3 μg/ml substrate, 0.001% (v/v) Nonidet-P40 (Sigma), 1% (v/v) dimethylsulfoxide]. The concentration of c-kit was adjusted depending of the activity of the enzyme lot and was chosen appropriate to have the assay in the linear range. The reaction was stopped by the addition of 5 μl of a solution of HTRF detection reagents (0.1 μM streptavidine-XLent and 1 nM PT66-Eu-Chelate, an europium-chelate labelled anti-phospho-tyrosine antibody from Perkin Elmer) in an aqueous EDTA-solution (80 mM EDTA, 0.2% (w/v) bovine serum albumin in 50 mM HEPES/NaOH pH 7.0).
(§1) The resulting mixture was incubated 1 h at 22° C. to allow the binding of the biotinylated phosphorylated peptide to the streptavidine-XLent and the PT66-Eu-Chelate. Subsequently the amount of phosphorylated substrate was evaluated by measurement of the resonance energy transfer from the PT66-Eu-Chelate to the streptavidine-XLent. Therefore, the fluorescence emissions at 620 nm and 665 nm after excitation at 350 nm was measured in a HTRF reader, e.g. a Rubystar (BMG Labtechnologies, Offenburg, Germany) or a Viewlux (Perkin-Elmer). The ratio of the emissions at 665 nm and at 622 nm was taken as the measure for the amount of phosphorylated substrate.
(In general: Time-resolved FRET reads energy transfer from a long-lived donor to a nearby acceptor.)

Experiment [2] concerns the target T1, Tie2. Put plainly: Tie-2-Kinase HTRF-Assay without kinase preactivation (assay 2). The experiment is classed as biochemical. The arrangement: A recombinant fusion protein of GST and the intracellular domains of Tie-2; GST; made in house; host or cells: insect cells (Hi-5). To be noted: GST-Tie-2 intracellular domains, no preactivation, 10 μM ATP.
Text: Assay 2: Tie-2-Kinase HTRF-Assay without Kinase Preactivation
Tie2-inhibitory activity of compounds of the present invention was quantified employing two Tie2 HTRF assay as described in the following paragraphs.
A recombinant fusion protein of GST and the intracellular domains of Tie-2, expressed in insect cells (Hi-5) and purified by Glutathion-Sepharose affinity chromatography was used as kinase. Alternatively, commercially available GST-Tie2-fusion protein (Upstate Biotechnology, Dundee, Scotland) can be used As substrate for the kinase reaction the biotinylated peptide biotin-Ahx-[…] (C-terminus in amid form) was used which can be purchased e.g. from the company Biosynthan GmbH (Berlin-Buch, Germany). Detection of phosphorylated product is achieved specifically by a trimeric detection complex consisting of the phosphorylated substrate, streptavidin-XLent (SA-XLent) which binds to biotin, and Europium Cryptate-labeled anti-phosphotyrosine antibody PT66 which binds to phosphorylated tyrosine.
The reaction was stopped by the addition of 5 μl of an aqueous buffer (25 mM Hepes/NaOH pH 7.5, 0.28% (w/v) bovine serum albumin) containing EDTA (90 mM) and the HTRF (Homogeneous Time Resolved Fluorescence) detection reagents streptavidine-XLent (0.2 μM, from Cis Biointernational, Marcoule, France) and PT66-Eu-Chelate (0.3 ng/μl; a europium-chelate labelled anti-phospho-tyrosine antibody from Perkin Elmer).
as §1, with “substrate peptide” for “substrate”, “substrate peptide.” for “substrate.”
Target sequence in this assay (Q02763 770-1124 limits assumed): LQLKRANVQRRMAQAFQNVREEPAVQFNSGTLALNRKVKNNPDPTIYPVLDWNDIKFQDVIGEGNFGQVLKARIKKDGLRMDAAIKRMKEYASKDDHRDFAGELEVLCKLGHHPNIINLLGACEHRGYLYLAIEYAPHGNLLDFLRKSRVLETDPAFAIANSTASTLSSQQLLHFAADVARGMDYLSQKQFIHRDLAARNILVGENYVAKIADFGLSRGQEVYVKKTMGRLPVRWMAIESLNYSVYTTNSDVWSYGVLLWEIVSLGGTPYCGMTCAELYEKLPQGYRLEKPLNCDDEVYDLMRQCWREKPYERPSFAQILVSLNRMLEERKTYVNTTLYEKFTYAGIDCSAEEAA

T2 sequence (P10721 589-937 limits assumed): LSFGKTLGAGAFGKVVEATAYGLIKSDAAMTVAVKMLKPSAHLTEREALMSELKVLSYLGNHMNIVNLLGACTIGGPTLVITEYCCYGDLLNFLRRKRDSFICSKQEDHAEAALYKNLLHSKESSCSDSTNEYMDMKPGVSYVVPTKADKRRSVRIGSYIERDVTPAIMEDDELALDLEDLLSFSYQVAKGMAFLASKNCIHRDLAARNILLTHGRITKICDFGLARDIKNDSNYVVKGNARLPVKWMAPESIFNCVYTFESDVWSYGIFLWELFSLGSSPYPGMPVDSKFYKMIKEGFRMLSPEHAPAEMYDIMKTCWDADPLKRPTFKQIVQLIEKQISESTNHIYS

For `CCOC(=O)C1(c2cc(-c3ccc(NC(=O)Nc4ccccc4)cc3)c3c(N)nn(C)c3n2)CC1` [Example 1.1, 1-{3-Amino-1-methyl-4-[4-(3-phenyl-ureido)-phenyl]-1H-pyra-zolo[3,4-b]pyridin-6-yl}-cyclopropanecarboxylic acid ethyl ester], the IC50 at Tie2 [1] lay in the range of 100 to 1000 nM; at human c-kit it was 1000 to 10000 nM; at Tie2 [2] it was 100 to 1000 nM. Also, on human c-kit, the “Selectivity vs. cKit” value stood at 4.

Turning to `CCOC(=O)C1(c2cc(-c3ccc(NC(=O)Nc4cccc(C(F)(F)F)c4)cc3)c3c(N)nn(C)c3n2)CC1` [Example 1.2, 1-(3-Amino-1-methyl-4-{4-[3-(3-trifluoromethyl-phenyl)-ureido]-phenyl}-1H-pyrazolo[3,4-b]pyridin-6-yl)-cyclopropanecarboxylic acid ethyl ester], the IC50 at Tie2 [1] was at most 100 nM; against human c-kit, 1000 to 10000 nM; on Tie2 [2], at most 100 nM. In addition, at human c-kit, the “Selectivity vs. cKit” value is above 30.

Regarding `CNC(=O)C1(c2cc(-c3ccc(NC(=O)Nc4cccc(C(F)(F)F)c4)cc3)c3c(N)nn(C)c3n2)CC1` [Example 1.4, 1-(3-Amino-1-methyl-4-{4-[3-(3-trifluoromethyl-phenyl)-ureido]-phenyl}-1H-pyrazolo[3,4-b]pyridin-6-yl)-cyclopropanecarboxylic acid methylamide], the IC50 was 100 to 1000 nM on Tie2 [1], 100 to 1000 nM against human c-kit and at most 100 nM on Tie2 [2]. Besides, the “Selectivity vs. cKit” value on human c-kit was 9.

On to `CCNC(=O)C1(c2cc(-c3ccc(NC(=O)Nc4cccc(C(F)(F)F)c4)cc3)c3c(N)nn(C)c3n2)CC1` [Example 1.5, 1-(3-Amino-1-methyl-4-{4-[3-(3-trifluoromethyl-phenyl)-ureido]-phenyl}-1H-pyrazolo[3,4-b]pyridin-6-yl)-cyclopropanecarboxylic acid ethylamide], for which the IC50 on Tie2 [1] is 100 to 1000 nM; at human c-kit, 1000 to 10000 nM; at Tie2 [2] it was at most 100 nM. Moreover, the “Selectivity vs. cKit” value at human c-kit is on record as above 100.

Turning to `CC(C)NC(=O)C1(c2cc(-c3ccc(NC(=O)Nc4cccc(C(F)(F)F)c4)cc3)c3c(N)nn(C)c3n2)CC1` [Example 1.6, 1-(3-Amino-1-methyl-4-{4-[3-(3-trifluoromethyl-phenyl)-ureido]-phenyl}-1H-pyrazolo[3,4-b]pyridin-6-yl)-cyclopropanecarboxylic acid isopropyl-amide], the IC50 was at most 100 nM at Tie2 [1], 1000 to 10000 nM against human c-kit and at most 100 nM on Tie2 [2]. The “Selectivity vs. cKit” value on human c-kit is above 100.

Regarding `Cn1nc(N)c2c(-c3ccc(NC(=O)Nc4cccc(C(F)(F)F)c4)cc3)cc(C3(C(=O)Nc4ccccc4)CC3)nc21` [Example 1.7, 1-(3-Amino-1-methyl-4-{4-[3-(3-trifluoromethyl-phenyl)-ureido]-phenyl}-1H-pyrazolo[3,4-b]pyridin-6-yl)-cyclopropanecarboxylic acid phenylamide], the IC50 was 100 to 1000 nM at Tie2 [1], 1000 to 10000 nM against human c-kit and 100 to 1000 nM at Tie2 [2]. Moreover, the “Selectivity vs. cKit” value on human c-kit came to 7.

As to `Cn1nc(N)c2c(-c3ccc(NC(=O)Nc4cccc(C(F)(F)F)c4)cc3)cc(C3(C(=O)NCCN4CCOCC4)CC3)nc21` [Example 1.8, 1-(3-Amino-1-methyl-4-{4-[3-(3-trifluoromethyl-phenyl)-ureido]-phenyl}-1H-pyrazolo[3,4-b]pyridin-6-yl)-cyclopropanecarboxylic acid (2-morpholin-4-yl-ethyl)-amide], the IC50 is at most 100 nM at Tie2 [1], 1000 to 10000 nM at human c-kit and 100 to 1000 nM on Tie2 [2]. The “Selectivity vs. cKit” value at human c-kit amounted to 15.

For `CN(C)CCNC(=O)C1(c2cc(-c3ccc(NC(=O)Nc4cccc(C(F)(F)F)c4)cc3)c3c(N)nn(C)c3n2)CC1` [Example 1.9, 1-(3-Amino-1-methyl-4-{4-[3-(3-trifluoromethyl-phenyl)-ureido]-phenyl}-1H-pyrazolo[3,4-b]pyridin-6-yl)-cyclopropanecarboxylic acid (2-dimethylamino-ethyl)-amide], the IC50 is 100 to 1000 nM at Tie2 [1], 100 to 1000 nM against human c-kit and at most 100 nM at Tie2 [2]. Also, at human c-kit, the “Selectivity vs. cKit” value stood at 10.

For the compound `CN(C)C(=O)C1(c2cc(-c3ccc(NC(=O)Nc4cccc(C(F)(F)F)c4)cc3)c3c(N)nn(C)c3n2)CC1` [Example 1.10, 1-(3-Amino-1-methyl-4-{4-[3-(3-trifluoromethyl-phenyl)-ureido]-phenyl}-1H-pyrazolo[3,4-b]pyridin-6-yl)-cyclopropanecarboxylic acid dimethylamide], the IC50 at Tie2 [1] is at most 100 nM; on human c-kit, 1000 to 10000 nM; on Tie2 [2], at most 100 nM. Further, the “Selectivity vs. cKit” value at human c-kit is on record as 12.

Take `CCN(CC)C(=O)C1(c2cc(-c3ccc(NC(=O)Nc4cccc(C(F)(F)F)c4)cc3)c3c(N)nn(C)c3n2)CC1` [Example 1.11, 1-(3-Amino-1-methyl-4-{4-[3-(3-trifluoromethyl-phenyl)-ureido]-phenyl}-1H-pyrazolo[3,4-b]pyridin-6-yl)-cyclopropanecarboxylic acid diethylamide]: the IC50 at Tie2 [1] is at most 100 nM; against human c-kit, 1000 to 10000 nM; on Tie2 [2], at most 100 nM. Moreover, the “Selectivity vs. cKit” value at human c-kit is listed as 24.

For `Cn1nc(N)c2c(-c3ccc(NC(=O)Nc4cccc(C(F)(F)F)c4)cc3)cc(C3(C(=O)NC4CC4)CC3)nc21` [Example 1.12, 1-(3-Amino-1-methyl-4-{4-[3-(3-trifluoromethyl-phenyl)-ureido]-phenyl}-1H-pyrazolo[3,4-b]pyridin-6-yl)-cyclopropanecarboxylic acid cyclopropylamide], the IC50 on Tie2 [1] was at most 100 nM; against human c-kit it was 1000 to 10000 nM; on Tie2 [2] it was at most 100 nM. Moreover, the “Selectivity vs. cKit” value on human c-kit was above 100.

As to `CN(C)C(=O)C[C@@H]1C[C@H](c2cc(-c3ccc(NC(=O)Nc4cccc(C(F)(F)F)c4)cc3)c3c(N)nn(C)c3n2)C1(C)C` [Example 8.4, 2-[3-(3-Amino-1-methyl-4-{4-[3-(3-trifluoromethyl-phenyl)-ureido]-phenyl}-1H-pyrazolo[3,4-b]pyridin-6-yl)-2,2-dimethyl-cyclobutyl]-N,N-dimethyl-acetamide], on human c-kit, the IC50 lay in the range of 1000 to 10000 nM and the “Selectivity vs. cKit” value is 19. For the same compound, on Tie2 [2], the IC50 was at most 100 nM.

(Values after patent publication US7825114B2, “Substituted aminopyrazolopyridines and salts thereof, pharmaceutical compositions comprising same, methods of preparing same and uses of same” (Bayer Schering Pharma AG, priority 2006, dated 2010).)
